Target: Beta-secretase 1 (Homo sapiens, UniProt P56817)
Assay: Inhibition of BACE1 by fluorescence assay

Sequence of Beta-secretase 1 (P56817 whole entry): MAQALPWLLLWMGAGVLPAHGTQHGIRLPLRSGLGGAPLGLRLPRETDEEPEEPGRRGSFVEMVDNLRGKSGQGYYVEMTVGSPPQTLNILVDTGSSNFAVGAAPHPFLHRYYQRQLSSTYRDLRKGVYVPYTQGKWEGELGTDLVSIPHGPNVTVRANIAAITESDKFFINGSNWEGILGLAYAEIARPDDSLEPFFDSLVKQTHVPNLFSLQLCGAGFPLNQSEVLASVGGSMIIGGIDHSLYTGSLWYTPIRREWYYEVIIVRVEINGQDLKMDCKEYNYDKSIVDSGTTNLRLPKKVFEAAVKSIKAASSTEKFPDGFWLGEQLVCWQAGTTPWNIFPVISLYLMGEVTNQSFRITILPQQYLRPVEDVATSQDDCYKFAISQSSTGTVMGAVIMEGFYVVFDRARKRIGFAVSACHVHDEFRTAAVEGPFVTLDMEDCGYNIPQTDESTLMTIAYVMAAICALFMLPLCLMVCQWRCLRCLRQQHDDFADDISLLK

IC50 [µM]	Structure (SMILES)
2.3	O=S(=O)(c1ccc(Cl)cc1)N(CCc1ccccc1)C[C@H](O)CN1CCN(C(c2ccccc2)c2ccccc2)CC1
1.9	O=S(=O)(c1ccc(Cl)cc1)N(CCc1ccccc1)C[C@@H](O)CN1CCN(C(c2ccccc2)c2ccccc2)CC1
5.4	O=S(=O)(c1ccc(Cl)c(Cl)c1)N(CC1CC1)C[C@H](O)CN1CCN(C(c2ccccc2)c2ccccc2)CC1
4.7	O=S(=O)(c1ccc(Cl)c(Cl)c1)N(CC1CC1)C[C@@H](O)CN1CCN(C(c2ccccc2)c2ccccc2)CC1
6.3	O=S(=O)(c1ccc(Cl)cc1)N(Cc1ccccc1)C[C@H](O)CN1CCN(C(c2ccccc2)c2ccccc2)CC1
5.4	O=S(=O)(c1ccc(Cl)cc1)N(Cc1ccccc1)C[C@@H](O)CN1CCN(C(c2ccccc2)c2ccccc2)CC1
5.1	O=S(=O)(c1ccccc1)N(CCc1ccccc1)C[C@H](O)CN1CCN(C(c2ccccc2)c2ccccc2)CC1
6.9	O=S(=O)(c1ccccc1)N(CCc1ccccc1)C[C@@H](O)CN1CCN(C(c2ccccc2)c2ccccc2)CC1

Source: ChEMBL document CHEMBL1275340, “BACE1 inhibitory activities of enantiomerically pure, variously substituted N-(3-(4-benzhydrylpiperazin-1-yl)-2-hydroxypropyl) arylsulfonamides” (Bioorg Med Chem, 2010)
